Key:
ISC-enriched organoids [1] = assay: Primary screen, 384-well 2.5-D organoid differentiation (ENR+CD, 6 days): carbachol-induced lysozyme secretion (LYZ.S); format: cell-based, murine; details: vs plate median
Excerpt: (§1) High-throughput screening.

ISC-enriched organoids [2] = assay: Primary screen, 384-well 2.5-D organoid differentiation (ENR+CD, 6 days, Target Selective Inhibitor Library, vs whole-plate median): ATP (CellTiter-Glo 3D, CTG); details: for Dose.FC.CTG (log 2 fold change, ATP): vs plate median
ISC-enriched organoids [3] = assay: Primary screen, 384-well 2.5-D organoid differentiation (ENR+CD, 6 days): basal lysozyme secretion (LYZ.NS); format: cell-based, murine; details: for Dose.FC.LYZ.NS (log 2 fold change, basal lysozyme secretion): vs plate median
Excerpt: as §1

Row | Compound | Dose.FC.LYZ.S (log 2 fold change, carbachol-induced lysozyme secretion) (ISC-enriched organoids [1]; dose 0.08 uM) | Dose.FC.LYZ.S (log 2 fold change, carbachol-induced lysozyme secretion) (ISC-enriched organoids [1]; dose 0.40 uM) | Dose.FC.LYZ.S (log 2 fold change, carbachol-induced lysozyme secretion) (ISC-enriched organoids [1]; dose 2.00 uM) | Dose.FC.LYZ.S (log 2 fold change, carbachol-induced lysozyme secretion) (ISC-enriched organoids [1]; dose 10.00 uM) | Z.CTG (standard z score) (ISC-enriched organoids [2]; dose 0.08 uM) | Dose.FC.CTG (log 2 fold change, ATP) (ISC-enriched organoids [2]; dose 0.08 uM) | Z.CTG (standard z score) (ISC-enriched organoids [2]; dose 0.40 uM) | Dose.FC.CTG (log 2 fold change, ATP) (ISC-enriched organoids [2]; dose 0.40 uM) | Z.CTG (standard z score) (ISC-enriched organoids [2]; dose 2.00 uM) | Dose.FC.CTG (log 2 fold change, ATP) (ISC-enriched organoids [2]; dose 2.00 uM) | Z.CTG (standard z score) (ISC-enriched organoids [2]; dose 10.00 uM) | Dose.FC.CTG (log 2 fold change, ATP) (ISC-enriched organoids [2]; dose 10.00 uM) | Z.LYZ.NS (standard z score) (ISC-enriched organoids [3]; dose 0.08 uM) | Dose.FC.LYZ.NS (log 2 fold change, basal lysozyme secretion) (ISC-enriched organoids [3]; dose 0.08 uM) | Z.LYZ.NS (standard z score) (ISC-enriched organoids [3]; dose 0.40 uM) | Dose.FC.LYZ.NS (log 2 fold change, basal lysozyme secretion) (ISC-enriched organoids [3]; dose 0.40 uM) | Z.LYZ.NS (standard z score) (ISC-enriched organoids [3]; dose 2.00 uM) | Dose.FC.LYZ.NS (log 2 fold change, basal lysozyme secretion) (ISC-enriched organoids [3]; dose 2.00 uM) | Z.LYZ.NS (standard z score) (ISC-enriched organoids [3]; dose 10.00 uM) | Dose.FC.LYZ.NS (log 2 fold change, basal lysozyme secretion) (ISC-enriched organoids [3]; dose 10.00 uM)
1 | COc1cc2ncnc(Nc3ccc(Cl)cc3F)c2cc1OC [ZM 306416] | 0.006 | −0.288 | −0.403 | −0.431 | −0.190 | −0.080 | −1.155 | −0.483 | −3.135 | −1.312 | −3.559 | −1.490 | 0.912 | 0.105 | −1.942 | −0.223 | −2.531 | −0.291 | −2.395 | −0.275
2 | COc1cc2c(Nc3ccc(NC(=O)c4ccccc4)cc3)ncnc2cc1OCCCN1CCOCC1 [ZM 447439] | 0.171 | 0.108 | 0.074 | −0.132 | 1.222 | 0.512 | 0.725 | 0.304 | 0.552 | 0.231 | −0.574 | −0.240 | 0.896 | 0.103 | 0.932 | 0.107 | 0.456 | 0.052 | −0.695 | −0.080
3 | COc1nc(C)cnc1NS(=O)(=O)c1cccnc1-c1ccc(-c2nnco2)cc1 [Zibotentan (ZD4054)] | 0.168 | 0.130 | −0.038 | 0.050 | 0.249 | 0.104 | −0.022 | −0.009 | −1.834 | −0.768 | −0.003 | −0.001 | 0.820 | 0.094 | 0.474 | 0.054 | −0.029 | −0.003 | 0.877 | 0.101

— patent US20230398130A1, “METHODS AND COMPOSITIONS FOR DIFFERENTIATING STEM CELLS” (Massachusetts Institute of Technology, priority 2020, published 2023)
